In general, IC50 refers to the midpoint of a concentration-inhibition curve.

The experiment can be described thus: Antioxidant assay: DPPH radical-scavenging activity. Particulars: read-out: Antioxidant activity IC50 (DPPH); DPPH method. For orientation: Loss of DPPH colour is used to gauge radical scavenging.

`C[C@@H]1O[C@@H](O[C@H]2[C@H](Oc3c(-c4ccc(O)cc4)oc4cc(O)cc(O)c4c3=O)O[C@H](CO[C@@H]3O[C@H](CO)[C@@H](O)[C@H](O)[C@H]3O)[C@@H](O)[C@@H]2O)[C@H](O)[C@H](O)[C@H]1O` [Compound 2, kaempferol-3-O-β-D-glucopyranosyl-(1 → 6)-[α-L-rhamnopyranosyl-(1 → 2)]-β-D-glucopyranoside]: the half-inhibitory concentration (IC50) was found to be 170 ± 5.2 µM.

Regarding `C[C@@H]1O[C@@H](OC[C@H]2O[C@@H](Oc3c(-c4ccc(O)cc4)oc4cc(O)cc(O)c4c3=O)[C@H](O[C@@H]3O[C@H](CO)[C@@H](O)[C@H](O)[C@H]3O)[C@@H](O)[C@@H]2O)[C@H](O)[C@H](O)[C@H]1O` [Compound 4, kaempferol-3-O-β-D-glucopyranosyl-(1 → 2)-[α-L-rhamnopyranosyl-(1 → 6)]-β-D-glucopyranoside], the IC50 amounted to 257 ± 19.9 µM.

Turning to `O=c1c(O)c(-c2ccc(O)cc2)oc2cc(O)cc(O)c12` [Compound 5, kaempferol], the IC50 came to 36.3 ± 1.1 µM.

On to `O=c1c(O[C@@H]2O[C@H](CO)[C@@H](O)[C@H](O)[C@H]2O)c(-c2ccc(O)cc2)oc2cc(O)cc(O)c12` [Compound 6, astragalin], for which the 50% inhibitory concentration (IC50) was determined as 100 ± 3.2 µM.

As for `O=c1c(O)c(-c2ccc(O)cc2)oc2cc(O[C@@H]3O[C@H](CO)[C@@H](O)[C@H](O)[C@H]3O)cc(O)c12` [Compound 7, kaempferol-7-O-β-D-glucopyranoside], the IC50 was determined as 77.6 ± 2.4 µM.

In the case of `O=c1c(O[C@@H]2O[C@H](CO)[C@@H](O)[C@H](O)[C@H]2O)c(-c2ccc(O)cc2)oc2cc(O[C@@H]3O[C@H](CO)[C@@H](O)[C@H](O)[C@H]3O)cc(O)c12` [Compound 8, kaempferol-3,7-di-O-β-D-glucopyranoside], the 50% inhibitory concentration (IC50) stood at 407 ± 22.1 µM.

On to `C[C@@H]1O[C@@H](OC[C@H]2O[C@@H](O[C@H]3[C@H](Oc4c(-c5ccc(O)cc5)oc5cc(O)cc(O)c5c4=O)O[C@H](CO)[C@@H](O)[C@@H]3O)[C@H](O)[C@@H](O)[C@@H]2O)[C@H](O)[C@H](O)[C@H]1O` [Compound 10, kaempferol-3-O-α-L-rhamnopyranosyl-(1 → 6)-β-D-glucopyranosyl-(1 → 2)-β-D-glucopyranoside], for which the IC50 turned out to be 209 ± 7.3 µM.

Turning to `O=C1O[C@H]([C@@H](O)CO)C(O)=C1O` [V c, L-ascorbic acid, reference compound], the IC50 came to 33.9 ± 1.1 µM.

On to kaempferol-3-O-rutinoside [Compound 11], for which the half-maximal inhibitory concentration (IC50) is 129 ± 9.2 µM.

The record behind these values is publication PMC9080520 (RSC Advances, 2018).
